Km data for three compounds are collected here from publication doi:10.1101/2024.07.14.603434v1 (biorxiv, 2024).

The target of one experiment is T1, NagA (Streptomyces coelicolor, UniProt Q9KXV7).
T1 sequence (Q9KXV7 1-381): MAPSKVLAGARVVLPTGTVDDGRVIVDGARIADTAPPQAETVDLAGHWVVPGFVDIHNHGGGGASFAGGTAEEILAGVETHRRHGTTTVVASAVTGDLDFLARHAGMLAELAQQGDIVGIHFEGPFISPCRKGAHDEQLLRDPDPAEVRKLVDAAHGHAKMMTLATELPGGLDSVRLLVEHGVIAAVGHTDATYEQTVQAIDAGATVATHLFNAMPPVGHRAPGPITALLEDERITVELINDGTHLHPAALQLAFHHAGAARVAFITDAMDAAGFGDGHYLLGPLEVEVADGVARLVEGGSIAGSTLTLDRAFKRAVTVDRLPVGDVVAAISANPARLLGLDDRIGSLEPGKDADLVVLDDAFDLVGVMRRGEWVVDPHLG
Nature of the experiment: decrease of amide absorbance at […] nm. The experiment is classed as biochemical. The conditions noted are these: phosphate buffer pH 7.4, 30 °C.

The next experiment concerns the target T2, NagS (Streptomyces coelicolor, UniProt Q9K3V1).
T2 sequence (Q9K3V1 1-251): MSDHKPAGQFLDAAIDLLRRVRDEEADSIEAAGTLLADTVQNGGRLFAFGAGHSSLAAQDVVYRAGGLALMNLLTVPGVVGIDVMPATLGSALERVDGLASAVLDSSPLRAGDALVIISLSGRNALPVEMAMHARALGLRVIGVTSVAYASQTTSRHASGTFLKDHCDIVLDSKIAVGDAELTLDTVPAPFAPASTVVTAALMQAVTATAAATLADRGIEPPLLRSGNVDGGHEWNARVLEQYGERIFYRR
Nature of the experiment: UV absorbance of product at […] nm. The experiment is classed as biochemical. The conditions noted are these: 100 mM phosphate, 100 mM NaCl, pH 7.4 buffer stock; 30 °C.

Regarding `CC(=O)N[C@H]1C(O)O[C@H](COP(=O)(O)O)[C@H](O)[C@@H]1O` (some centres unmarked) [GalNAc-6P], the Km on NagA worked out at 2840 ± 410 µM.
For `CC(=O)N[C@H]1C(O)O[C@H](COP(=O)(O)O)[C@@H](O)[C@@H]1O` (some centres unmarked) [GlcNAc-6P], the Michaelis constant (Km) at NagS was determined as 450 ± 30 µM; at NagA it was 1590 ± 210 µM.
As to `CC(=O)N[C@@H]1C(O)O[C@H](COP(=O)(O)O)[C@@H](O)[C@@H]1O` (some centres unmarked) [ManNAc-6P], the Km worked out at 680 ± 50 µM on NagS and 2400 ± 440 µM at NagA.
